In patent publication US6458978B1, “Fluorous phosphines and process for their preparation” (Atofina Vlissingen B.V., priority 1998, dated 2002):
Marks after values point to notes of the source that are not given here. Blank lines part the entries; values can stand above or below the compound they belong to.

Key:
[1] = Hydrogenation of 1-octene under single phase conditions in α,α,α-trifluorotoluene; conditions: [Rh] 4.0 mM, [1-octene] 1.46 M; T = 80° C., p(H2) = 1 bar, α,α,α-trifluorotoluene
Protocol: To be able to directly compare the activities of fluorous derivatives H{1,6} and H{1,8} with non-fluorous [P(C6H4-4-SiMe3)3]3RhCl (H{0}) and the conventional Wilkinson catalyst (PPh3)3RhCl, homogeneous hydrogenation of 1-octene were carried out under single phase conditions in the hybrid solvent α,α,α-trifluorotoluene at atmospheric H2 pressures. Highest rates of hydrogen uptake (14.2 mol.L^−1.h^−1) were measured for 1c at relatively high rhodium and olefine concentrations (entry 2, Table 7). Under these conditions a zero-order dependence in [1-octene] was found up to ca 80% conversion resulting in a linear conversion versus time plot. In all other experiments ([Rh]=4.0-8.0 mM, [1-octene]0=1.46 M) rates of hydrogen uptake were lower (<11 mol.L^−1.h^−1) and conversion versus time plots corresponded to a rate law -d[1-octene]/dt=kobs.[1-octene] for >98% conversion allowing to evaluate catalyst activity in terms of the observed first order rate constant kobs. Since for these experiments the rates of dihydrogen uptake were well below the maximum value obtained in entry 2, diffusion limitation of H2 can be excluded. In addition to kobs, turn over frequencies (TOF in mol.mol^−1.h^−1) were derived from the tangent of a 4^thorder polynomal fit to conversion versus time plots at 25% conversion and serve as a measure of catalyst activity independent of any assumed kinetic relationship with substrate.
Catalytic reactions were carried out under single phase conditions in CF3C6H5 at 80° C. under 1 bar of hydrogen pressure. After >90% conversion (monitored by the H2 uptake) volatiles were distilled off and analyzed by GC. Activities (TOF) were determined for 25% conversion.

[2] = hydrogenation of 1-heptene in benzene; cited from earlier work
[3] = Leaching of rhodium and phosphorus into the organic product phase and partitioning of rhodium species (ICP-AAS); conditions: T = 0° C.; fluorous biphasic product mixture from hydrogenation of 1-octene
Text: Rhodium leaching into the organic phase (as determined by ICP-AAS) was low. On average 0.12% of Rh per cycle was lost corresponding to a rhodium concentration of 3 ppm (by weight) in the product phase. Over 9 cycles only 1% of rhodium was lost despite of the phase separation method used. Leaching was higher for less fluorous pre-catalyst H{1,6}: 0.3% (6 ppm) of rhodium was present in the organic phase after phase separation.
The amount of leached rhodium allows to calculate the average partition coefficients (P) of the rhodium species present during phase separation (Table 6). […] Chem. Soc. 1999, 121, 2696-2704.). […] Chem. Int. Ed. Engl. 1997, 36, 1610-1612).
The retention of free uncoordinated fluorous phosphine can be used for recycling the intact catalyst system.
(§1) Only catalysts prepared through method 1 were used. Catalytic reactions were carried out under single phase fluorous conditions in c-CF3C6F11 (2 mL) at 80° C. After >90% conversion (monitored by the H2 uptake) the homogeneous reaction mixture was cooled to 0° C. and the upper organic layer was siphoned of. In between cycles the fluorous layer was kept under H2 atmosphere. By warming up to 80° C. and addition of a fresh portion of 1-octene (12.74 mmol) a new cycle was started. The organic phases resulting from the first cycle were analyzed by GC and ICP-AAS.

[4] = Rhodium catalyzed hydrogenation of 1-octene under single phase fluorous conditions with catalyst recycling; conditions: for TOF50% / TON (cumulative) / conv.: p(H2) = 1 bar
Protocol: (Table 5). In this respect compounds H{1,6} and H{1,8} are true fluorous equivalents of the classical Wilkinson's hydrogenation catalyst (PPh3)3RhCl. The hydrogenation products were readily isolated from the catalyst layer by cooling of the reaction mixture to 0° C. followed by phase separation of the resulting biphasic system. In this way hydrogenation of 1-octene afforded n-octane in >95% yield (GC, GC-MS). Less than 4.3% internal olefins resulting from isomerization were present. In case of H{1,8} it was possible to recycle the fluorous catalyst layer multiple times allowing high turnover numbers and high conversions per cycle (Table 5 and FIG. 5).
20. Rhodium Catalyzed Hydrogenation Reactions
The catalytic experiments were carried out in a 30 mL Schienk flask, under dihydrogen atmosphere (1 bar). The catalyst was either dissolved in a hydrogen saturated toluene or perfluoro solvent and the mixture was stirred with a magnetic stirring bar (900 rpm). The olefinic substrate was added after initial dihydrogen uptake had ceased. The dihydrogen uptake was monitored using two mineral oil filled gas burettes. During the hydrogenation reactions one burette was opened to the reaction vessel while the other was recharged with dihydrogen.
as §1

[5] = c-C6F11CF3/toluene at 27° C.; cited from earlier work
[6] = cycle 1, c-CF3C6F11, 80° C., [1-octene]/[Rh] = 365
[7] = cycle 2, c-CF3C6F11, 80° C., [1-octene]/[Rh] = 365
[8] = cycle 3, c-CF3C6F11, 80° C., [1-octene]/[Rh] = 365
[9] = cycle 4, c-CF3C6F11, 80° C., [1-octene]/[Rh] = 365
[10] = cycle 5, c-CF3C6F11, 80° C., [1-octene]/[Rh] = 365
[11] = cycle 6, c-CF3C6F11, 80° C., [1-octene]/[Rh] = 365
[12] = cycle 7, c-CF3C6F11, 80° C., [1-octene]/[Rh] = 365
[13] = cycle 8, c-CF3C6F11, 80° C., [1-octene]/[Rh] = 365
[14] = cycle 9, fresh c-CF3C6F11 added as compensation for losses of fluorous solvent, 80° C.

Structure (SMILES): [Cl-].[Rh].c1ccc(P(c2ccccc2)c2ccccc2)cc1.c1ccc(P(c2ccccc2)c2ccccc2)cc1.c1ccc(P(c2ccccc2)c2ccccc2)cc1 [(PPh3)3RhCl]
TOF(25%), turn over frequency at 25% conversion [1]: 960 h⁻¹ | TON (mole of olefin/mole of Rh) [1]: 358 | conversion [1]: 98% | kobs (first order rate constant) [1]: 4.0(1) h^−1 | TOF [2]: 150 to 600 h⁻¹

Average partitioning coefficient P of rhodium species [3]: 1052^c
Structure (SMILES): C[Si](C)(CCC(F)(F)C(F)(F)C(F)(F)C(F)(F)C(F)(F)C(F)(F)C(F)(F)C(F)(F)F)c1ccc(P(c2ccc([Si](C)(C)CCC(F)(F)C(F)(F)C(F)(F)C(F)(F)C(F)(F)C(F)(F)C(F)(F)C(F)(F)F)cc2)c2ccc([Si](C)(C)CCC(F)(F)C(F)(F)C(F)(F)C(F)(F)C(F)(F)C(F)(F)C(F)(F)C(F)(F)F)cc2)cc1.C[Si](C)(CCC(F)(F)C(F)(F)C(F)(F)C(F)(F)C(F)(F)C(F)(F)C(F)(F)C(F)(F)F)c1ccc(P(c2ccc([Si](C)(C)CCC(F)(F)C(F)(F)C(F)(F)C(F)(F)C(F)(F)C(F)(F)C(F)(F)C(F)(F)F)cc2)c2ccc([Si](C)(C)CCC(F)(F)C(F)(F)C(F)(F)C(F)(F)C(F)(F)C(F)(F)C(F)(F)C(F)(F)F)cc2)cc1.C[Si](C)(CCC(F)(F)C(F)(F)C(F)(F)C(F)(F)C(F)(F)C(F)(F)C(F)(F)C(F)(F)F)c1ccc(P(c2ccc([Si](C)(C)CCC(F)(F)C(F)(F)C(F)(F)C(F)(F)C(F)(F)C(F)(F)C(F)(F)C(F)(F)F)cc2)c2ccc([Si](C)(C)CCC(F)(F)C(F)(F)C(F)(F)C(F)(F)C(F)(F)C(F)(F)C(F)(F)C(F)(F)F)cc2)cc1.[Cl][Rh] [H{1,8}, (D{1,8})3RhCl]
TOF(25%), turn over frequency at 25% conversion [1]: 870 h⁻¹ | TON (mole of olefin/mole of Rh) [1]: 355 | conversion [1]: 99% | kobs (first order rate constant) [1]: 3.2(1) h^−1 | Drop of catalyst activity ([4]; 9th cycle, amount of c-C6F11CF3 restored to its initial volume): 19% | TOF50% [4, 6]: 177 h⁻¹ | TON (cumulative) [4, 6]: 337 | conv. ([4]; cycle 1, c-CF3C6F11, 80° C., [1-octene]/[Rh] = 365, [Rh] = 0.0087M in the initial cycle): 92% | TOF50% [4, 7]: 212 h⁻¹ | TON (cumulative) [4, 7]: 688 | conv. [4, 7]: 96% | TOF50% [4, 8]: 261 h⁻¹ | TON (cumulative) [4, 8]: 1048 | conv. [4, 8]: 99% | TOF50% [4, 9]: 277 h⁻¹ | TON (cumulative) [4, 9]: 1383 | conv. [4, 9]: 92% | TOF50% [4, 10]: 304 h⁻¹ | TON (cumulative) [4, 10]: 1747 | conv. [4, 10]: 99.8% | TOF50% [4, 11]: 397 h⁻¹ | TON (cumulative) [4, 11]: 2100 | conv. [4, 11]: 96.8% | TOF50% [4, 12]: 507 h⁻¹ | TON (cumulative) [4, 12]: 2444 | conv. [4, 12]: 94% | TOF50% [4, 13]: 617 h⁻¹ | TON (cumulative) [4, 13]: 2808 | conv. [4, 13]: 99.7% | TOF50% [4, 14]: 142 h⁻¹ | TON (cumulative) [4, 14]: 3117 | conv. [4, 14]: 85%

Structure (SMILES): FC(F)(F)C(F)(F)C(F)(F)C(F)(F)C(F)(F)C(F)(F)CCP(CCC(F)(F)C(F)(F)C(F)(F)C(F)(F)C(F)(F)C(F)(F)F)CCC(F)(F)C(F)(F)C(F)(F)C(F)(F)C(F)(F)C(F)(F)F [P [(CH2)2(CF2)nCF3)3]3 (n=5)]
Partition coefficient P [5]: 82

Structure (SMILES): FC(F)(F)C(F)(F)C(F)(F)C(F)(F)C(F)(F)C(F)(F)CCP(CCC(F)(F)C(F)(F)C(F)(F)C(F)(F)C(F)(F)C(F)(F)F)CCC(F)(F)C(F)(F)C(F)(F)C(F)(F)C(F)(F)C(F)(F)F [P [(CH2)2(CF2)nCF3)3]3 (n=7)]
Partition coefficient P [5]: 332
